Measurements taken from patent US9527850B2, “Benzyl piperidine compounds as lysophosphatidic acid (LPA) receptor antagonist” (Merck Patent GmbH, priority 2011, dated 2016).

What follows are compounds tested against T1, LPA2 receptor (LPA2R) (Homo sapiens, UniProt Q9HBW0) (assay: LPA2R-Calciumflux assay (intracellular calcium mobilisation, FLIPR)). Conditions: U2OS cells recombinant expressing LPA2R; inhibition of LPA-induced Ca-flux; 10 concentrations 30 uM to 1 nM, 1% DMSO.
T1 construct: expressed in transfected cells; host or cells: U2OS
T1 sequence (Q9HBW0 whole entry): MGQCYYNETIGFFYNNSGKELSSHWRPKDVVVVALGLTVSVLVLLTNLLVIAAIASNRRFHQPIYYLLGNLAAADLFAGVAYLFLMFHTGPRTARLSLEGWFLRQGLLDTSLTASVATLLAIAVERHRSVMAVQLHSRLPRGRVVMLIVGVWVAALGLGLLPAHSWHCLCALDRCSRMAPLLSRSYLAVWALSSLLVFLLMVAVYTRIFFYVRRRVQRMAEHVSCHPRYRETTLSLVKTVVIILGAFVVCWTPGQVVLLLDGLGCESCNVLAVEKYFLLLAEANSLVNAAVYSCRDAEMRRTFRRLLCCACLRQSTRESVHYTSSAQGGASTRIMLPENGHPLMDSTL
Assay type: cell-based

Compound	IC50 [nM]
Fc1ccc(CN2CCCCC2c2nc3cccnc3[nH]2)cc1 (centres unmarked) [compound 130, 2-[1-(4-Fluoro-benzyl)-piperidin-2-yl]-3H-imidazo[4,5-b]pyridine]	< 500
Cc1ccc(CN2CCCC[C@H]2c2cc3ccccc3[nH]2)cc1 [Example Compound 143, 2-[(S)-1-(4-Methyl-benzyl)-piperidin-2-yl]-1H-indole]	> 15000
Fc1ccc2[nH]c(C3CCCCN3Cc3cccc(Br)c3)cc2c1 (centres unmarked) [compound 57, 2-[1-(3-Bromo-benzyl)-piperidin-2-yl]-5-fluoro-1H-indole]	500 to 5000
CCc1nc(CN2CCCCC2c2cc3cc(F)ccc3[nH]2)cs1 (centres unmarked) [compound 85]	< 500
Cc1cccc(CN2CCCCC2c2nc3cc(Cl)cc(C)c3[nH]2)c1 (centres unmarked) [compound 99, 5-Chloro-7-methyl-2-[1-(3-methyl-benzyl)-piperidin-2-yl]-1H-benzo-imidazole]	500 to 5000
Fc1ccc(CN2CCCCC2c2nc3cc(Cl)cnc3[nH]2)cc1 (centres unmarked) [compound 120, 6-Chloro-2-[1-(4-fluoro-benzyl)-piperidin-2-yl]-3H-imidazo[4,5-b]pyridine]	< 500
COc1ccc(CN2CCCCC2c2cc3cc(F)ccc3[nH]2)cc1 (centres unmarked) [compound 107, 5-Fluoro-2-[1-(4-methoxy-benzyl)-piperidin-2-yl]-1H-indole]	< 500
Fc1ccc2[nH]c(C3CCCCN3Cc3csc(Cl)n3)nc2c1 (centres unmarked) [compound 122, 2-[1-(2-Chloro-thiazol-4-ylmethyl)-piperidin-2-yl]-5-fluoro-1H-benzo-imidazole]	500 to 5000
